Test results: article PMC12261321, “Inhibitors of the Bacterioferritin Ferredoxin Complex Dysregulate Iron Homeostasis and Kill and Biofilm-Embedded Cells” (ACS Infectious Diseases, 2025)
“Also recorded” adds a separate entry of the source.

Experiments:
Assay type in all cases: cell-based
A. baumannii 5075 [1] = assay: Siderophores secreted by A. baumannii (CAS assay); settings: 5075, 20 h, M63 without citrate; compounds 40 μM, SB-17–140 80 μM
Protocol: Unlike pyoverdine, the siderophores secreted by are not fluorescent. Consequently, to measure siderophore secretion from planktonic cultures of , we decided to utilize the Chrome azurol S (CAS) assay, a well-known universal colorimetric method used to detect siderophores. , To this end, planktonic cells of 5075 were cultured for 20 h in the presence of sub-MICs of a representative number of inhibitors in M63 media not containing citrate, followed by analysis of the cell-free spent media by the CAS assay. […] These observations support the hypothesis that active compounds engage their target (Ab Bfr) and block the Ab Bfr–Bfd complex in , trapping iron in Ab Bfr and causing intracellular iron limitation, which in turn elicits a siderophore overproduction phenotype. […]
reported13 with some modifications. Cells were cultured in modified M63 media (2 g / L ( N H 4)2SO4, 13.6 g/L KH2PO4 (Sigma Aldrich), 2 g/L glucose, 4 g/L cit ric acid, 5 g/ L technical grade casamino acids (B D scientific), 0.24 g/L MgSO4 (Alfa A esar), and 0.025% (w/v) HPMC, pH 7.0 adjusted with KOH) . […]
Determination of Siderophores Secreted by A. baumannii . The chromo azurol S (CAS) solution was prepared as previously reported18 with some modifications. The blue dye solution (0.6 g/L CAS ( ACROS Organics), 100 μM FeCl3·6H2O, and 0.73 g/L hexadecyltrimethylammonium bromide (HDTMA, ACROS Organics) was autoclaved and stored in the dark. The MM9-PIPES buffer solution (3 g/L KH2PO4, 5 g/L NaCl, 10 g/L NH4C l, 32.24 g/L piperazine -1,4-bis-2- ethanesulfonic acid (PIPES , Sigma Aldrich), pH 6.75) was sterilized using a 0.22 µm syringe filter (VWR). Prior to every experimen t, blue dye solution (0.5 mL) was mixed with 4.5 mL of MM9-PIPES solution. An overnight culture of A. baumannii 5075 was diluted to OD600 = 0.0001 with modified M63 media (no citric acid) supplemented with 4 μ M Fe and transferred to a 96-well plate, wh ere it was cul tured for 20 […]
h at 35 °C and 205 cpm i n a plate reader (Synergy H1, BioTek). The treated cell cultures contained compound at the concentrations indicat ed in the caption of Figure 8B and […], whereas the untreated control contained 0.1% DMSO. 700 μ L was centrifuged at 16,200 x g for 10 min. 200 μ L of the clarified supern atant was mixed with the 200 μL of CAS solution and allowed to incubate at room temperatu re in the dark for 2 h prior to recording a UV-Vis spectrum (200 nm to 800 nm) in a 1.0 cm quartz cuvette with the aid of a Cary 60 UV-Vi s spectrophotometer (Agilent Technologies). The fold- change in siderophore secreted by the treated vs. untreated cells was calculated using equation S3, where Tr indicates treated cells, Un indicates DMSO control cells, […]
solution of fresh modified M63 media. The experiment was carried out in at least five biological replicates for […]
FFggFFFF cch aammggaa =(ΔΔAA 630 )UUii (S3)
Measurement of Dissociation Constant (Kd) R ecombinant Pa BfrB was expressed in E. coli and purified as previously reported.19 Apo-BfrB (devoid of heme) was utilized for the measurements to prevent heme-driven fluorescence quenching. A 0.5 mL solution contai ning 0.01 µM apo Pa-BfrB in PBS (pH = 7.4) containing0.5% DMSO was plac ed into a 1 cm quartz cuvette wh ere it was titrated with aliq uots of compound dissolved in a 50% (v/v) PBS/DMSO solution. The fluorescence quenching brought by the addition of each aliquot was monitored with the aid of an Agilent Cary Fluorometer , with excitation at 280 nm, emission at 320- 470 nm, 10 x10 nm slit width, and an average of 5 scans per spectrum. Th e binding assay included at least 8 aliquots spanning from ~ 0.1 […]
A control titration was carried out by titrati ng compound into PBS buffer. The Kd was cal culated by fitting the data to equation S4, w here Fb is the fraction bound and Fmax is the fraction bound at saturating compound concentration.
FFbb = FFmmmmmm ? [ccccmmccccccmmcc ]? (S4) […]

P. aeruginosa PAO1 [2] = assay: Pyoverdin secreted by P. aeruginosa PAO1 (fluorescence); settings: planktonic cells, 24 h; KM-5–25 80 μM, KM-5–35 60 μM, EB-5–73 40 μM, SB-17–140 80 μM
Protocol: Dete rmination of pyoverdin secreted by P. aeruginosa PA O 1 . These experiments were conducted as previously reported13 with some modifications. Cells were cultured in modified M63 media (2 g / L ( N H 4)2SO4, 13.6 g/L KH2PO4 (Sigma Aldrich), 2 g/L glucose, 4 g/L cit ric acid, 5 g/ L technical grade casamino acids (B D scientific), 0.24 g/L MgSO4 (Alfa A esar), and 0.025% (w/v) HPMC, pH 7.0 adjusted with KOH) . Starter cultures in LB were diluted to OD600 = 0.0001 and cultured in a sh aker i ncubator (35 °C and 205 rpm) for 24 h, in the absen ce ( control) and in the presence of KM -5- 25 (80 μM), KM-5- 35 (60 μM), EB- 5- 73 (40 μM), and SB-17- 140 (80 μM); al l cell suspensions have 1.5% DMSO. 700 μ L of the culture wer e clarified by centrifugation (16,200 x g, 10 min, 4 °C), diluted 10-fold in PBS and then analyzed by acquiring fluorescence emission spectra (410- 600 nm) with excitation at 400 nm (10 nm slit width) and emission at λ max= 430 nm (10 nm slit width) using an Ag ilent (Cary Eclipse) fluorescen ce sp ectrophotometer. The flu orescen ce intensity of th e treated sample (FI)Tr and that of the untreated control (FI)Un was normalized to the corresponding OD600 and the ratio (FI/OD600)Tr / (F I/ OD600)Un is […]
The determination for each of the compounds was carri ed out in 5 biological replicates. […]

P. aeruginosa PAO1 [3] = assay: Compound intracellular accumulation in P. aeruginosa PAO1; settings: ‡ treatment with 15 µM compound
A. baumannii 5075 [4] = assay: Compound intracellular accumulation in A. baumannii 5075; settings: ‡ treatment with 15 µM compound

SMILES	siderophore secretion, ΔA 630 nm normalized to OD600 (A. baumannii 5075 [1])	pyoverdine secretion, (FI/OD600)Tr/(FI/OD600)Un (P. aeruginosa PAO1 [2])	Intracell. Accum, P. aeruginosa PAO1 (P. aeruginosa PAO1 [3])	Intracell. Accum, A. baumannii 5075 (A. baumannii 5075 [4])
O=C1NC(=O)c2c(NCc3ccc(Br)cc3O)cccc21 [EB-5-61]	secrete significantly higher levels of siderophore	–	–	–
O=C1NC(=O)c2c(NCc3cccc(Br)c3O)cccc21 [EB-5-73]	do not elicit a siderophore overproduction phenotype	did not secrete more pyoverdine than the untreated control cultures; also recorded: secrete the same amount of pyoverdine as the untreated control	–	–
O=C1NC(=O)c2c(NCc3cc(Cl)ccc3O)cccc21 [KM-5-25, 4-((5-Chloro-2-hydroxybenzyl)amino)isoindoline-1,3-dione]	secrete significantly higher levels of siderophore	overproduction of pyoverdine; also recorded: pyoverdine overproduction phenotype	–	–
O=C1NC(=O)c2c(NCc3c(O)cccc3Cl)cccc21 [KM-5-29]	secrete significantly higher levels of siderophore	–	–	–
O=C1NC(=O)c2c(NCc3cc(Br)ccc3O)cccc21 [KM-5-35, 4-((5-Bromo-2-hydroxybenzyl)amino)isoindoline-1,3-dione]	secrete significantly higher levels of siderophore	overproduction of pyoverdine; also recorded: pyoverdine overproduction phenotype	–	–
O=C1NC(=O)c2c(NCc3cc(Cl)ccc3O)ccc(Br)c21 [SB-16-51]	–	–	425 ± 79 nmol/1012 CFU	2137 ± 311 nmol/1012 CFU
CC(C)(C)c1ccc(O)c(CNc2cccc3c2C(=O)NC3=O)c1 [SB-16-53]	–	–	263 ± 40 nmol/1012 CFU	327 ± 17 nmol/1012 CFU
Cc1cc(Br)cc(CNc2cccc3c2C(=O)NC3=O)c1O [SB-16-106]	–	–	415 ± 141 nmol/1012 CFU	782 ± 11 nmol/1012 CFU
O=C1NC(=O)c2c(NCc3cc(Br)c(F)cc3O)cccc21 [SB-16-112]	–	–	457 ± 22 nmol/1012 CFU	–
O=C1NC(=O)c2c(NCc3cc(Br)ccc3O)ccc(Cl)c21 [SB-16-124]	–	–	558 ± 154 nmol/1012 CFU	2626 ± 389 nmol/1012 CFU
Cc1cc(Cl)cc(CNc2cccc3c2C(=O)NC3=O)c1O [SB-16-156]	–	–	165 ± 18 nmol/1012 CFU	671 ± 89 nmol/1012 CFU
Cc1cc(CNc2cccc3c2C(=O)NC3=O)c(O)cc1Br [SB-16-183]	–	–	379 ± 48 nmol/1012 CFU	–
O=C1NC(=O)c2c(NCc3cccc4c3CCN4)cccc21 [SB-17-140]	do not elicit a siderophore overproduction phenotype	did not secrete more pyoverdine than the untreated control cultures; also recorded: secrete the same amount of pyoverdine as the untreated control	–	–
